Source: US8198260B2, “Composition for the prevention and/or treatment of disorders due to abnormal lipid metabolism, comprising propionyl L-carnitine and chitosan” (Sigma-Tau Industrie Farmaceutiche Riunite SpA, priority 1999, dated 2012)

Key:
[1] = tested on: male Wistar rats on atherogenic diet; experiment: Experimental atherosclerosis tests (atherogenic diet for six weeks); type: in vivo; conditions: 100 mg/kg of each component
Method: D2 200 mUST/g diet was administered for six weeks consecutively to different groups of male Wistar rats.
While one group of rats served as a control group, the other groups were administered chitosan (100 mg/kg) or propionyl L-carnitine (100 mg/kg) or chitosan (100 mg/kg) plus propionyl L-carnitine (100 mg/kg).
Another group of animals was administered acetyl L-carnitine (100 mg/kg) and butyryl L-carnitine (100 mg/kg) in addition to chitosan and propionyl L-carnitine.

[2] = tested on: experimentally obese rats; experiment: Tests in experimentally obese rats (lipogenic diet for fifteen days); type: in vivo, Wistar rats
Method: In these tests, male Wistar rats aged approximately two months were administered a lipogenic diet containing 50% glucose, 20% casein, 4% cellulose, 1% hazel nut oil, 18% starch, 2% vitamin mixture, and 5% salt mixture. The diet was administered for fifteen days consecutively to different groups of rats, one of which served as a control group, whereas the remaining groups were administered daily, per 100 g of diet, 2 g of propionyl L-carnitine or 1 g of chitosan, or the two compounds in combination at the same doses.
Another group was also administered acetyl L-carnitine (2 g/100 g diet) and butyryl L-carnitine (0.5 g/100 g diet) in addition to propionyl L-carnitine and chitosan.
At the end of the fifteenth day since the beginning of the diet, feed consumption and increase in body weight were calculated for each group of rats.

[3] = tested on: experimentally hypercholesterolaemic rabbits; experiment: Tests in experimentally hypercholesterolaemic rabbits (plasma lipoproteins); type: in vivo, New Zealand rabbits
Method: Another type of experiment was conducted in New Zealand rabbits kept on a hypercholesterolaemic diet for forty days and treated with alkanoyl L-carnitine, chitosan or with the two types of compounds in combination. In these tests, 0.5% by weight of cholesterol was added to the normal diet of the rabbits consisting of 150 g/day and containing 2% fats, 20% fibres and 11% ashes.
While one group of animals was used as a control group, the remaining groups were treated for six days with propionyl L-carnitine (2 g/100 g diet), chitosan (1 g/100 g diet), or propionyl L-carnitine+acetyl L-carnitine+butyryl L-carnitine (1 g+1 g+1 g/100 g diet) or with chitosan plus propionyl L-carnitine or chitosan plus the alkanoyl carnitine complex at the doses indicated above.
At the end of the fortieth day of treatment blood samples were taken from the ear vein from all animals and the plasma was used to calculate lipoprotein content in the various fractions (VLDL, LDL, HDL) after ultracentrifuging according to the method described by Noble (Noble R. P., J. Lipid Res., 9:693, 1968).

[4] = Day 40 of 0.5% cholesterol diet

CCC(=O)O[C@H](CC(=O)[O-])C[N+](C)(C)C [Propionyl L-carnitine, propionyl L-carnitine]
Protective effect against atherosclerotic lesions induced by the atherogenic diet [1]: substantial protective effect | Mean daily feed consumption (g)/animal, before treatment ([2]; before treatment, lipogenic diet, per 100 g diet: propionyl L-carnitine 2 g, chitosan 1 g, acetyl L-carnitine 2 g, butyryl L-carnitine 0.5 g): 19.8 ± 0.71 g | Mean body growth, final weight increase ([2]; end of fifteenth day of lipogenic diet, same doses in diet): 60.8 ± 5.2 | Mean daily feed consumption (g)/animal, at the end of treatment ([2]; end of fifteenth day, lipogenic diet, per 100 g diet: propionyl L-carnitine 2 g, chitosan 1 g, acetyl L-carnitine 2 g, butyryl L-carnitine 0.5 g): 18.9 ± 0.50 g | Plasma lipoprotein concentration HDL ([3]; Day 0): 24.2 ± 2.4 mg/dL | Plasma lipoprotein concentration LDL ([3]; Day 0): 9.8 ± 1.9 mg/dL | Plasma lipoprotein concentration VLDL ([3]; Day 0): 1.4 ± 0.9 mg/dL | Plasma lipoprotein concentration HDL [3, 4]: 26.5 ± 10.4 mg/dL | Plasma lipoprotein concentration LDL [3, 4]: 322 ± 31.4 mg/dL | Plasma lipoprotein concentration VLDL [3, 4]: 832 ± 105 mg/dL | Increase in VLDL compared with control animals (in words) ([3]; fortieth day, hypercholesterolaemic diet): much less significant
